According to patent publication US20230219898A1, “COMPOUNDS AND METHODS FOR BLOCKING APOPTOSIS AND INDUCING AUTOPHAGY” (President and Fellows of Harvard College, priority 2020, published 2023):
Like-named read-outs stand apart in the source and are kept apart here. Where a SMILES comes first, the peptide text is derived from it. The star is where a group is joined. Cbz = O=C(OCc1ccccc1)*; CH2F = FC*

What was measured:
Human Jurkat cells = assay: Velcade-induced apoptosis of Jurkat cells, CellTiter-Glo viability; type: cell-based; conditions: 24 hours
Protocol: (§1) Human Jurkat cells were seeded in 96-well plates (20000 cells per well). Different concentrations of the compounds were added one hour prior to Velcade treatment, followed by the addition of 50 nM Velcade. After incubation for 24 hours, cell viability was measured by CellTiter-Glo Luminescent Cell Viability Assay.
(§2) The rates of cell death were measured in triplicate or quadruplicate in a 96-well or 384-well plate by using SYTOX Green Nucleic Acid Stain (Invitrogen) or ToxiLight Non-destructive Cytotoxicity BioAssay Kit (Lonza). The intensity of luminescence was determined in an EnSpire Multimode Plate Reader (PerkinElmer). Cytotoxicity is expressed as percentages of cell death per well after deducting the background signal in non-induced cells and compared to that of the maximal cell death with 100% Lysis Reagent. The rates of cell viability were determined by using CellTiter-Glo Luminescent Cell Viability Assay (Promega) following the manufacturer's protocol and the results are expressed as percentages of luminescence intensity per well after deducting the background signal in blank well and compared to that of the viability in the non-treated wells. Concentration of drugs used for inducing or inhibiting cell death, mTNFα: 1 ng/ml; 5Z-7-Oxozeaenol: 0.5 μM; Velcade: 50 nM; Apt-1/ICCB-19/ICCB-19i/Nec-1s: 10 μM.

Murine RGC5(661W) cells = assay: RIPK1-dependent apoptosis (RDA) of RGC5 cells induced by TNFα plus 5Z-7-Oxozeaenol; type: cell-based; conditions: Mus musculus, 21 hours
Protocol: as §1, with “Murine RGC5(661W)” for “Human Jurkat”, “(4000” for “(20000”, “TNFα” for “Velcade”, “0.5 ng/ml TNFα plus 0.5 μM 5Z-7-Oxozeaenol to induce RIPK1-dependent apoptosis (RDA).” for “50 nM Velcade.”, “21” for “24”

MEFs = assay: RDA in MEFs induced by mTNFα and 5Z-7-Oxozeaenol, cell survival; type: cell-based, mouse; conditions: 10 μM
Protocol: as §2

H4-GFP-LC3 cells = assay: Autophagy induction, GFP-LC3 puncta and LC3II immunoblotting; type: cell-based; conditions: 10 μM, 6 h (zVAD.fmk 20 μM)
Protocol: Mean ±s.e.m. (n=5). One-way ANOVA, post hoc Dunnett's test.
Autophagy was determined by LC3II levels using immunoblotting. SE=shorter exposure, LE=longer exposure.
Autophagy was measured by LC3II induction and p62 reduction by immunoblotting. The levels of LC3II in cells treated with both Apt-1 and NH4Cl, the latter of which inhibits lysosome, were higher than that treated with either Apt-1 or NH4Cl alone. Thus, ICCB-19/Apt-1, but not ICCB-19i, induce autophagic flux. Mean ±s.e.m. from technical triplicates (n=3), representative of 3 independent experiments. Two-tailed t-test. **P=0.0037.
Levels of LC3II determined by immunoblotting.
Cells were seeded at 2.5×10^4 cells per well on poly-L-lysine coated glass cover slips and transfected as described. Cells were fixed in 4% paraformaldehyde, followed by permeabilization with 0.1% Triton X-100. Nuclei were stained using DAPI (Sigma). Cells expressing GFP or RFP-fusion proteins were imaged with an Olympus Fluoview FV1000 confocal microscope (Olympus) using a 40×objective. For GFP-LC3 and DsRed-FYVE puncta quantification, the average spot intensity in 1000 cells from each indicated sample was determined. Images were processed using ImageJ and Photoshop CC. Concentration of compounds used to induce or block autophagy: 10 μM (Apt-1, ICCB-19, ICCB-19i or Spautin-1), for 6 h or as indicated.

H4 cells = assay: Autophagy by LC3II western blotting in H4 cells (FIG. 21); type: cell-based; conditions: 10 uM, 1 h pretreatment, 6 h vehicle or 40 mM NH4Cl
Protocol: (§3) Wild-type H4 and MEF cells that were pretreated for 1 h with 10 uM of the specified compounds, followed by 6 h treatment with either vehicle or 40 mM NH4Cl. Cell lysates were prepared and immunoblotted for LC3-I and LC3-II. Autophagy was determined by LC3II levels using western blotting.

MEF cells = assay: Autophagy by LC3II western blotting in MEF cells (FIG. 21); type: cell-based, mouse; conditions: 10 uM, 1 h pretreatment, 6 h vehicle or 40 mM NH4Cl
Protocol: as §3

[1] = system: cleaved-caspase 3 (CC3) in MEF cells; assay: Cleaved caspase 3 immunoblot in MEF cells treated with 5z-7-oxozeaenol and TNFα (FIG. 22); type: cell-based, mouse; conditions: 10 uM; 2 h 0.5 uM 5z-7-oxozeaenol and 1 ng/mL TNFα
Protocol: (§4) Specifically, wild-type MEF cells were pretreated for 1 h with 10 uM of the specified compounds, followed by 2 h treatment with 0.5 uM 5z-7-oxozeaenol and 1 ng/mL TNFα. Cell lysates were prepared and immunoblotted for cleaved-caspase 3 (CC3). Wild-type Jurkat cells were also pretreated for 1 h with 10 uM of the specified compounds, followed by 12 h treatment with 50 nM Velcade. Cell lysates were prepared and immunoblotted for cleaved-caspase 3 (CC3).

[2] = system: cleaved caspase-3 in Jurkat cells; assay: Cleaved caspase-3 immunoblot in Velcade-treated cells; type: cell-based, human; conditions: 10 uM; 12 h 50 nM Velcade
Protocol: The levels of cleaved caspase-3 were determined by immunoblotting.
as §4

[3] = Table 3, 50 nM Velcade, read-out: Jurkat Velcade IC50/μM
[4] = Table 3, 0.5 ng/ml TNFα plus 0.5 μM 5Z-7-Oxozeaenol, read-out: RGC5 T/5z7 IC50/μM
[5] = Table 1, 50 nM Velcade, read-out: Apoptosis of Jurkat cells induced by Velcade (IC50 μM)
[6] = Table 2, 0.5 ng/ml TNFα plus 0.5 μM 5Z-7-Oxozeaenol, read-out: RGC5 T/5z7 IC50

Compound	IC50 (Human Jurkat cells; [3]) [µM]	IC50 (Murine RGC5(661W) cells; [4]) [µM]	also measured
O=C(CSC1=NCCN1)NC(c1ccccc1)c1ccccc1 [Compound 37]	1.17	3.05	–
CC(SC1=NCCN1C)C(=O)N(C)C1CCCCCC1 (stereo not drawn) [Compound 28]	0.953	2.93	–
CN(C(=O)CSC1=NCCN1)C1CCCCCC1 [Compound 16]	1.46	8.84	–
Cc1ccccc1NC(=O)CSC1=NCCN1 [Compound 3]	–	–	IC50 (Human Jurkat cells; [5]): 32.1 µM
N#Cc1ccc(CSC(=N)N)cc1 [Compound 7]	–	–	IC50 (Human Jurkat cells; [5]): 6.84 µM
CN1C(=O)NC(Cc2c[nH]c3c(Cl)cccc23)C1=O (stereo not drawn) [Nec-1s, reference compound]	–	–	protection against RDA models (MEFs): protected against multiple RDA models
CC(SC1=NCCN1)C(=O)NC1CCCCCC1 (stereo not drawn) [Compound 18]	3.66	4.02	–
COc1ccc(NC(=O)CSC2=NCCN2)cc1 [Compound 5]	–	–	IC50 (Human Jurkat cells; [5]): 46.4 µM
CCN1CCN=C1SC(C(=O)NC1CCCCCC1)c1ccccc1 (stereo not drawn) [Compound 36]	1.07	1.79	–
CC(SC1=NCCN1C)C(=O)NC1CCCCCC1 (stereo not drawn) [Compound 27]	3.06	2.81	–
COc1ccc(CSC(=N)N)cc1[N+](=O)[O-] [Compound 2]	–	–	IC50 (Human Jurkat cells; [5]): 4.4 µM
CC(C)C(SC1=NCCN1C)C(=O)NC1CCCCCC1 (stereo not drawn) [Compound 29]	3.87	1.83	–
COC(=O)C[C@H](NC(=O)[C@H](C)NC(=O)[C@@H](NC(=O)OCc1ccccc1)C(C)C)C(=O)CF [zVAD.fmk, reference compound] (Cbz-Val-Ala-Asp(OMe)-CH2F)	–	–	induction of autophagy (H4-GFP-LC3 cells): no effect on autophagy
CC(SC1=NCCN1)C(=O)N(C)C1CCCCCC1 (stereo not drawn) [Compound 25]	1.22	2.87	–
O=C(CSC1=NCCN1)N1CCc2ccccc21 [ICCB-17]	–	–	IC50 (Human Jurkat cells; [5]): 13.4 µM
O=C(CSC1=NCCN1)NC1CCC1 [Compound 14]	–	–	IC50 (Murine RGC5(661W) cells; [6]): 4.51 µM
CN1CCN=C1SC(C(=O)NC1CCCCCC1)c1ccccc1Cl (stereo not drawn) [Compound 34]	0.882	2.21	–
N=C(N)SCc1ccccc1F [Compound 1]	–	–	IC50 (Human Jurkat cells; [5]): 6.2 µM
O=C(CSC1=NCCN1)NC1CCCCC1 [Compound 12]	–	–	IC50 (Murine RGC5(661W) cells; [6]): 2.36 µM
C/N=C(\NC)NCC(=O)N1CCCC1 [Compound 38]	–	–	autophagy (LC3II levels) in H4 cells (H4 cells): induce autophagy; autophagy (LC3II levels) in MEF cells (MEF cells): induce autophagy; cleaved caspase 3 in MEF cells [1]: block cleaved caspase 3; cleaved caspase 3 in Jurkat cells [2]: block cleaved caspase 3
CN1CCN=C1SC(C(=O)NC(c1ccccc1)c1ccccc1)c1ccccc1 (stereo not drawn) [Compound 42]	1.15	1.57	–
Cc1ccc(NC(=O)CSC2=NCCN2)cc1 [Compound 4]	–	–	IC50 (Human Jurkat cells; [5]): 10.5 µM
CN1CCN=C1SC(C(=O)NC1CCCCCC1)c1ccc(Cl)cc1 (stereo not drawn) [Compound 35]	2.14	1.6	–
FC(F)=C(F)CCSC1=NCCN1 [Compound 8]	–	–	IC50 (Human Jurkat cells; [5]): 17.3 µM
CN1CCN=C1SCC(=O)N(C)C1CCCCCC1 [Compound 26]	1.99	3.08	–
O=C(CSC1=NCCN1)NC1CCCC1 [Compound 13]	–	–	IC50 (Murine RGC5(661W) cells; [6]): 3.42 µM
CN1CCN=C1SCC(=O)NC1CCCCCC1 [Compound 19]	1.8	3.33	–
CN1CCN=C1SC(C)(C)C(=O)NC1CCCCCC1 [Compound 33]	1.04	1.67	–
Fc1ccccc1CSC1=NCCN1 [Compound 40]	3.23	5.87	autophagy (LC3II levels) in H4 cells (H4 cells): induce autophagy; autophagy (LC3II levels) in MEF cells (MEF cells): induce autophagy; cleaved caspase 3 in MEF cells [1]: block cleaved caspase 3; cleaved caspase 3 in Jurkat cells [2]: block cleaved caspase 3
